{
  "source": "ChEMBL document CHEMBL1140621",
  "about": "“2D-autocorrelation descriptors for predicting cytotoxicity of naphthoquinone ester derivatives against oral human epidermoid carcinoma” (Bioorg Med Chem, 2007)",
  "system": "KB",
  "experiment": "Cytotoxicity against human KB cells",
  "format": "functional, cell-based",
  "data": [
    {"smiles": "COc1cc(C(=O)OCC(C)(C)CC2=CC(=O)c3ccccc3C2=O)c(OC)c2ccccc12", "values": [
      {"measurement": "IC50", "result": 12.5, "unit": "µM"}
    ]}
  ]
}
